The results in this text go back to paper PMC5295395, “Inhibition of PlexA1-mediated brain tumor growth and tumor-associated angiogenesis using a transmembrane domain targeting peptide” (Oncotarget, 2016).

Experiment [1] deals with NRP1/PlexA1 complexes. Description: in situ proximity ligation assay (Duo-link), NRP1/PlexA1 complexes in U373MG cells. To be noted: U373MG cells, MTP-PlexA1 10^−7 M, vs vehicle. It is filed as cell-based, human. How it is done: “Zip sequence” is the positive control of dimerization and “Empty” is the negative control of this bacterial system. (C, D) SPR assay (Biacore) to quantify MTP-PlexA1 interactions with PLexA1, NRP1 and VEGFR2 TMDs. (E) Proximity ligation assay showing that MTP-PlexA1 (10^−7 M) decreases the number of PLexA1-NRP1 interactions (green dots) in U373MG cells (scale bar = 20 μm).
Additional specificity controls were performed using a mutated version of MTP-PlexA1 (in which 3 glycines of the GxxxGxxxG motif were replaced by 3 valines or MTP-Neu, an anti-breast cancer peptide known to not interact with PlexA1) as described in Supplementary Figure S2. […] Similar results were obtained when cells were exposed to VEGF (39.4% NRP1 and 35.4% PlexA4, Figure 4B).
Supplementary Figure S2: Specificity controls were performed using a mutated version of MTP-PlexA1 […]
LVIVAVLIAYKRK). Such mutations have been previously shown to be sufficient to lose activity of NRP1 antagonist membrane domain targeting peptide (Roth et al., 2008 Mol Biol Cell). We also used MTP-Neu, a transmembrane domain targeting peptide known to […]
M, a concentration previously shown to produce maximal antagonist activity of the peptide. Additionally, we also repeated the in vitro angiogenic assay on matrigel using HUVEC cells. […]
to MTP-PlexA1. These experiments confirmed the specificity of MTP-PlexA1.
(1 picture or pasted object on this page, not shown here)

For experiment [2], the system named is HUVEC cells. Description: pseudo-tube formation assay, HUVEC on matrigel. The class given is cell-based, human. To be noted: 10^−7 M, 5 h, vs vehicle; p = 0.0087. An excerpt: We observed PlexA1 positive blood vessels in the tissue array of GBM samples (Figure 5A). […] To address this possibility we first used a transgenic zebra-fish model tg(kdrl:eGFP) highlighting the endothelial cells. This allowed us to assess the angiogenic activities in vivo by analyzing formation of intersegmental vessels (ISVs) after morpholino-based knockdown of the target.
Figure 5 MTP-PlexA1 inhibits developmental and tumor-specific PlexA1 pro-angiogenic role (A) Microphotographs illustrating the expression of PlexA1 in vascular-like structures in human glioma tissues. (Scale bar: 40 μm). (B) Morpholino-based PlexA1 knockdown in Zebrafish tg(kdrl:eGFP) line. Representative images of control, Plexin-A1 mismatch and Pexin-A1 knockdown embryos (plxna1MO) are shown 28 hours post fertilization (28hpf). […] (E) Live-monitoring of VEGF-induced HUVEC cell migration assay using the XCelligence system (transwell assay). (F) Microphotographs illustrating the expression of PlexA1 in blood vessels of the chick chorioallontoic membrane (upper left picture). Microphotographs (middle and lower left pictures) and camera lucida drawing (middle and lower right pictures) showing representative fields of observation after 24 h incubation with VEGF (100 ng/ml, +vehicle) or VEGF + MTP-PlexA1 (10^−7 M). The number of VEGF-induced new blood vessels is shown in the graph. […]

Experiment [3] concerns U118MG-Luc glioma tumors in nude mice. In words: heterotopic (subcutaneous) U118MG-Luc xenograft, tumor growth. It is filed as in vivo, human cells in mouse. Here is the method:
To address the biological consequences of MTP-PlexA1-mediated inhibition of PlexA1 we used the U118MG-Luc glioma cell line genetically engineered to express the luciferase reporter gene. […] Cells were then grafted subcutaneously and tumor growth was monitored every 5 days for a total period of 20 days. […] The quantitative analysis of the cumulated luminescent signal acquired all along the protocol confirmed the strong reduction of tumor development translating into a marked 75% reduction of the averaged luminescent signal at the end point (Figure 6C). […] However, responses were strong for 8 out of 10 mice with some responses close to 100%, all of them being at least Partial Response (PR) (Figure 6D). In order to clarify the mechanism by which MTP-PlexA1 is exerting tumor growth inhibition we collected tumors and analyzed them histologically.
(B) Representative photographs illustrating the kinetic of tumor growth over 20 days in the two experimental groups. (C) Cumulated growth curves of the tumors (UA: Arbitrary Unit). (D) Waterfall plot of best response representing the percent change in tumor volume of individual treated animals (grey bars, n = 10) compared to the average tumor volume increased determined in the control group (dark bars, n = 10). (E) Proximity ligation assay on tumor slices showing that MTP-PlexA1 (10^−7 M) decreases the number of PlexA1-NRP1 interactions in U118MG cells. (F) Representative microphotographs and related quantification of PH3 positive cells in tumor slices (G) Representative microphotographs and related quantification of CD31 positive regions in tumor slices (% CD31 per μm² of tumors).
Experiments were performed according to the Guide for Care and Use of Laboratory Animals (E67-6-482-21) and the European Directive with approval of the regional ethical committee (Reference AL/55/62/02/13). Heterotopic grafts were produced by injecting […] in the flank of pathogen-free NMRI nude mice (Janvier, Le Genest Saint Isle, France). Intraperitoneal administration of vehicle (LDS 72 μM) or MTP-PlexA1 treatment (10–7 M) were done every days during 20 days when the tumors reached a minimal volume of 100 mm3. For the experiment conducted with cancer stem cell line NCH644mCherry, we performed bilateral grafting of 10^6 cells on each flank of 20 nude mice without treatment or pre-incubated for 1 hour with MTP-PlexA1 at 10–7 M. After 5 days, the fluorescence emission of developing tumors was recorded using the NightOwl system (Berthold) using appropriate excitation and emission filters (580 nm/620 nm respectively).
(In general: Xenograft models place foreign cells or tissue in a host animal.)

The mark [4] stands for this setting: subcutaneous U118MG-Luc, every day, 1 μg/kg, n = 10.

In the case of “TLPAIVGIGGGGGLLLLVIVAVLIAYKRK [MTP-PlexA1, synthetic transmembrane peptide mimicking the TMD of PlexA1]”, the “reduction of NRP1/PlexA1 complexes” value in experiment [1] worked out at 29.4%. The “change of tube-like structures (HUVEC on matrigel)” value in experiment [2] is on record as −68%. Moreover, in experiment [3] (setting [4]), the “mice not responding to treatment (waterfall best response)” value is given as 2 out of 10 and the “mice with strong response, at least Partial Response (PR)” value is 8 out of 10. Besides, the “reduction of averaged luminescent signal at the end point” value in experiment [3] (subcutaneous U118MG-Luc, i.p. every day, 1 μg/kg, 20 days) worked out at 75%. Also, the “best response, some animals” value in experiment [3] (waterfall graph, percent change in tumor volume, individual animals) is ~100%.
